Experimental data as given in patent US20100068260A1, “Methods, Compositions and Device for Directed and Controlled Heating and Release of Agents” (priority 2007, published 2010).

How the values were obtained:
[1] = UV-Vis analysis of disulfide bond stability to heat and hydroxylamine; type: physicochemical; conditions: with and without hydroxylamine solution; room temperature to 90° C., 15 minutes each; FIG. 18-19
Description: The solution was heated for 15 minutes at each temperature and allowed to cool to room temp before the spectra were taken. ˜1 mg of DTT was added to the solution to cleave the remaining disulfide bonds.

[2] = UV-Vis detection of chromophore release on heating liposomes (DPPC, DSPE-PEG2000, SATA-DSPE, PDP-PE); type: physicochemical; conditions: negative control without hydroxylamine, heated to 90° C.; FIG. 16
Description: To deprotect the thiol group on the liposomes 100 μL of 0.5 M hydroxylamine with 25 mM EDTA pH 7.3 in PBS buffer were added to 50 μL of PBS buffer containing the liposomes. The mixture was gently mixed over an hour. The procedure for deprotection was taken from Pierce.
50 μL of liposomes formed by the second method were diluted into 650 μL of PBS. UV-Vis spectra were taken of PBS as a blank, the liposomes in PBS, and hydroxylamine solution in PBS all at room temperature.
The liposomes were heated to 40 to 90° C. at 10 degree intervals for 10 minutes each, upon cooling to room temperature UV-Vis spectra was taken; the spectra are shown in FIG. 15.
As a negative control, the same procedure was performed on the same concentration of liposomes and PBS without the hydroxylamine solution. After heating the negative control to 90° C. DTT, which serves to cleave any disulfide bonds present, was added to visualize the amount of PDP-PE that is present in the liposomes, as shown in FIG. 16.

Row | reduction of disulfide on heating [1] | reduction of PDP-PE with only heat [2] | Compound
1 | reduction is occurring | – | c1ccc(SSc2ccccn2)nc1 [2,2′ dithiodipyridine, 2,2′-dithiodipyridine]
2 | – | does not seem to be reduced | CCCCCCCCCCCCCCCC(=O)OC[C@H](COP(=O)(O)OCCNC(=O)CCSSc1ccccn1)OC(=O)CCCCCCCCCCCCCCC [PDP-PE, N-[3-(2-Pyridyldithio)propionyl]-1,2-dipalmitoyl-sn-glycero-3-phosphoethanolamine]
